The values below are quoted from earlier work in patent US20150376254A1, “GAMMA-MSH ANALOGUES” (TXP Pharma GmbH, priority 2014, published 2015).

The test system of data set [1] is normal human lung fibroblasts (NHLF). The conditions noted are these: TGFβ1-induced NHLF; at higher doses; detailed in U.S. provisional application 61/785,631.
The target in the next data set is MC3r (Homo sapiens, UniProt P41968). The conditions noted are these: relative to MC4r; J. Med. Chem. 2005, 48, 1839-1848.
The target in another data set is MC5r (Homo sapiens, UniProt P33032). The conditions noted are these: J. Med. Chem. 2005, 48, 1839-1848.
Sequence of MC5r (P33032 whole entry): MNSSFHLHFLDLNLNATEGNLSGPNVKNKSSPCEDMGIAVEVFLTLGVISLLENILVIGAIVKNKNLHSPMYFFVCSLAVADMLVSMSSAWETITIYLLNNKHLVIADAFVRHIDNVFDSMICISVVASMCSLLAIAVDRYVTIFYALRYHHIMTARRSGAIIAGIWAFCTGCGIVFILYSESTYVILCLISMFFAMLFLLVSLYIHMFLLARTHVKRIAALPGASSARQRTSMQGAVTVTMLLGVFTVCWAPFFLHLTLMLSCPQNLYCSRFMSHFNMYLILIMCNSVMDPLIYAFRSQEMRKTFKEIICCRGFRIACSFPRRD

Sequence of MC3r (P41968 whole entry): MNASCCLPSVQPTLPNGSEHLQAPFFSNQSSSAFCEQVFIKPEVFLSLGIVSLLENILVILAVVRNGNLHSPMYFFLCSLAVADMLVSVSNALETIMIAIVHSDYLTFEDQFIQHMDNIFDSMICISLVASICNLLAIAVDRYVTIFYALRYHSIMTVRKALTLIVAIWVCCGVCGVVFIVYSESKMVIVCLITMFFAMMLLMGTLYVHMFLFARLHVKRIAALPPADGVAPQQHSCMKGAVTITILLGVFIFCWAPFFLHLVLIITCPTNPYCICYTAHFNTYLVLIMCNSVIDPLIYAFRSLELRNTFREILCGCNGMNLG

In the case of “ACTH: adrenocorticotropic hormone, a melanocortin peptide primarily binding MC2R (SYSMEHFRWGKPVGKKRRPVKVYPNGAEDESAEAFPLEF; Corticotropin; UniProt P01189 138-176, looked up)”, the ECM collagen entry in data set [1] is “statistically significant reduction”. With γ-MSH, on MC3r, the “affinity to the MC3r” value is reported as “higher affinity”. Further, the “binding affinity against the MC5r” value on MC5r is “weak”.
